For orientation: MIC means the smallest concentration in the dilution series that meets the test's criterion for growth inhibition. One may read the IC50 as the midpoint of a concentration-inhibition curve. High values mean a need for much substance, low ones inhibition by little substance.

Values after ≈ are worked out from the molar mass of the structure shown. Bounds are passed on as bounds.

The test system of assay [1] is Escherichia coli. The assay is described as follows: Antibacterial activity against Escherichia coli. In kind it is functional.
In assay [2] the target is T1, Peptide deformylase (Escherichia coli, UniProt Q9JN24).
T1 sequence (Q9JN24 whole entry): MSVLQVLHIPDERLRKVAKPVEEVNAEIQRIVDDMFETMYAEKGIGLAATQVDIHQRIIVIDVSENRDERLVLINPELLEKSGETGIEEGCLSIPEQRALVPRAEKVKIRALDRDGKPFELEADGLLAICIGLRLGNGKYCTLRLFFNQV
The assay is described as follows: Inhibition concentration against Escherichia coli peptide deformylase.

The test system of assay [3] is Staphylococcus capitis. Put plainly: Antibacterial activity against Staphylococcus capitis. In kind it is functional.
[4] abbreviates: Escherichia coli, read-out: MIC.
Where [5] appears, read: Staphylococcus capitis, read-out: MIC.

For `CCCC[C@H](CN(O)C=O)C(=O)N[C@H](C(=O)O)C(C)(C)C`, the MIC in assay [1] (setting [4]) and in assay [3] (setting [5]) was greater than 200 µM in each case. This compound came in with an IC50 in assay [2] of 80 nM.

Consider `CCCC[C@H](CN(O)C=O)C(=O)N[C@H](C(=O)N1CCOCC1)C(C)(C)C`, for which the MIC in assay [1] (setting [4]) and in assay [3] (setting [5]) was 25 µM (≈ 9.29 µg/mL) throughout. For the same compound, in assay [2], the half-maximal inhibitory concentration (IC50) is 20 nM.

With `CCCC[C@H](CN(O)C=O)C(=O)N[C@@H](CCC(=O)OCc1ccccc1)C(=O)N(C)C`, the MIC was greater than 200 µM in assay [1] (setting [4]) and 200 µM (≈ 87.1 µg/mL) in assay [3] (setting [5]). The compound further showed an IC50 in assay [2] of 20 nM.

With `CCCC[C@H](CN(O)C=O)C(=O)N[C@@H](CC(=O)OCc1ccccc1)C(=O)N(C)C`, the MIC in assay [1] (setting [4]) was greater than 200 µM; in assay [3] (setting [5]) it was 25 µM (≈ 10.5 µg/mL). This compound also registered a concentration for half-maximal inhibition (IC50) in assay [2] of 100 nM.

For `CCCC[C@H](CN(O)C=O)C(=O)N[C@@H](CC(C)C)C(=O)N(C)C`, the MIC in assay [1] (setting [4]) and in assay [3] (setting [5]) was 50 µM (≈ 16.5 µg/mL) throughout. In assay [2], the IC50 came to 20 nM.

With `CCCC[C@H](CN(O)C=O)C(=O)N[C@H](C(=O)N(C)C)C(C)(C)C` (stereo in doubt; form 1), the IC50 in assay [2] came to 7 nM.

Turning to `CCCC[C@H](CN(O)C=O)C(=O)N[C@H](C(=O)N(C)C)C(C)CC` (some centres undefined), the MIC in assay [1] (setting [4]) stood at 25 µM (≈ 8.24 µg/mL); in assay [3] (setting [5]), 12.5 µM (≈ 4.12 µg/mL). Moreover, in assay [2], the IC50 was 20 nM.

For the compound `CCCC[C@H](CN(O)C=O)C(=O)N[C@H](C(=O)N1CCCC1)C(C)(C)C`, the minimal inhibitory concentration (MIC) in assay [1] (setting [4]) and in assay [3] (setting [5]) was 25 µM (≈ 8.89 µg/mL) in each case.

As for `CCCC[C@H](CN(O)C=O)C(=O)N[C@H](C(=O)N1CCC(C(=O)OCC)CC1)C(C)(C)C`, the values for the MIC in assay [1] (setting [4]) and in assay [3] (setting [5]) were greater than 200 µM and 25 µM (≈ 11 µg/mL), respectively. 10 nM corresponded to half-maximal inhibition in assay [2] (IC50).

Regarding `CCCC[C@H](CN(O)C=O)C(=O)N[C@H](C(C)=O)C(C)(C)C`, the MIC in assay [1] (setting [4]) was 25 µM (≈ 7.51 µg/mL); in assay [3] (setting [5]), 100 µM (≈ 30 µg/mL). In assay [2], this compound gave an IC50 of 20 nM.

Turning to `CCCC[C@H](CN(O)C=O)C(=O)N[C@@H](CCCNC(=N)N)C(=O)N(C)C`, the MIC in assay [1] (setting [4]) is greater than 200 µM; in assay [3] (setting [5]), 50 µM (≈ 18.6 µg/mL). The compound further registered an IC50 in assay [2] of 20 nM.

For the compound `CCCC[C@H](CN(O)C=O)C(=O)N[C@@H](Cc1ccc(O)cc1)C(=O)N(C)C`, the MIC in assay [1] (setting [4]) and in assay [3] (setting [5]) was greater than 200 µM in each case. In assay [2], half-maximal inhibition (IC50) required 300 nM.

As to `CCCC[C@H](CN(O)C=O)C(=O)N[C@H](C(=O)N(C)C)C(C)(C)SC`, the MIC in assay [1] (setting [4]) and in assay [3] (setting [5]) was 25 µM (≈ 9.04 µg/mL) throughout.

Turning to `CCCC[C@H](CN(O)C=O)C(=O)N[C@H](C(=O)N(C)C)C(C)(C)O`, the figures for the MIC in assay [1] (setting [4]) and in assay [3] (setting [5]) were 12.5 µM (≈ 4.14 µg/mL) and 25 µM (≈ 8.29 µg/mL), respectively.

Consider `CCCC[C@H](CN(O)C=O)C(=O)N[C@H](C(=O)N1CCCC2CCCCC21)C(C)(C)C` (some centres undefined), for which the MIC is greater than 200 µM in assay [1] (setting [4]) and 50 µM (≈ 21.2 µg/mL) in assay [3] (setting [5]).

For the compound `CCCC[C@H](CN(O)C=O)C(=O)N[C@H](C(=O)N(CCc1ccccc1)Cc1ccccc1)C(C)(C)C`, the MIC in assay [1] (setting [4]) was greater than 200 µM; in assay [3] (setting [5]), 100 µM (≈ 49.6 µg/mL). Also, the half-inhibitory concentration (IC50) in assay [2] turned out to be 90 nM.

Take `CCCC[C@H](CN(O)C=O)C(=O)N[C@@H](CO)C(=O)N(C)C`: the results for the MIC in assay [1] (setting [4]) and in assay [3] (setting [5]) were 100 µM (≈ 30.3 µg/mL) and 50 µM (≈ 15.2 µg/mL), respectively.

In the case of `CCCC[C@H](CN(O)C=O)C(=O)N[C@H](C(=O)N1CCC(C(C)=O)CC1)C(C)(C)C`, the minimal inhibitory concentration (MIC) in assay [1] (setting [4]) came to 100 µM (≈ 41.2 µg/mL); in assay [3] (setting [5]), 25 µM (≈ 10.3 µg/mL). Besides, the IC50 in assay [2] is 10 nM.

Take `CCCC[C@H](CN(O)C=O)C(=O)N[C@H](C(=O)N1CCN(C)CC1)C(C)(C)C`: the values for the MIC in assay [1] (setting [4]) and in assay [3] (setting [5]) were 25 µM (≈ 9.61 µg/mL) and 50 µM (≈ 19.2 µg/mL), respectively. In assay [2], this compound had an IC50 of 50 nM.

With `CCCC[C@H](CN(O)C=O)C(=O)N[C@@H](C)C(=O)N(C)C`, the MIC in assay [1] (setting [4]) came out at 25 µM (≈ 7.18 µg/mL); in assay [3] (setting [5]) it was 100 µM (≈ 28.7 µg/mL). Moreover, the IC50 in assay [2] is 40 nM.

With `CCCC[C@H](CN(O)C=O)C(=O)N[C@@H](CCCCN(C)C)C(=O)N(C)C`, the MIC in assay [1] (setting [4]) and in assay [3] (setting [5]) was greater than 200 µM each time. Besides, the IC50 in assay [2] was 300 nM.

With `CCCC[C@H](CN(O)C=O)C(=O)N[C@H](C(=O)OC)C(C)(C)C`, the values for the MIC in assay [1] (setting [4]) and in assay [3] (setting [5]) were 50 µM (≈ 15.8 µg/mL) and 200 µM (≈ 63.3 µg/mL), respectively. In assay [2], this compound returned an IC50 of 30 nM.

Consider `CCCC[C@H](CN(O)C=O)C(=O)N[C@H](C(=O)N1CCC(C)CC1)C(C)(C)C`, for which the MIC in assay [1] (setting [4]) amounted to 100 µM (≈ 38.4 µg/mL); in assay [3] (setting [5]) it was 50 µM (≈ 19.2 µg/mL). In addition, the IC50 in assay [2] came out at 10 nM.

With `CCCC[C@H](CN(O)C=O)C(=O)N[C@H](C(=O)N(C)C)C(C)(C)OC`, the minimum inhibitory concentration (MIC) was 25 µM (≈ 8.64 µg/mL) in assay [1] (setting [4]) and 100 µM (≈ 34.5 µg/mL) in assay [3] (setting [5]).

Take `CCCC[C@H](CN(O)C=O)C(=O)N[C@H](C(=O)N(C)C1CCCCC1)C(C)(C)C`: the figures for the MIC in assay [1] (setting [4]) and in assay [3] (setting [5]) were greater than 200 µM and 100 µM (≈ 39.8 µg/mL), respectively.

As for `CCCC[C@H](CN(O)C=O)C(=O)N[C@H](C(=O)N1CCCc2ccccc21)C(C)(C)C`, the MIC in assay [1] (setting [4]) and in assay [3] (setting [5]) was 50 µM (≈ 20.9 µg/mL) throughout. The IC50 in assay [2] came out at 9 nM.

Regarding `CCCC[C@H](CN(O)C=O)C(=O)N[C@H](C(=O)N(C)C)C(C)C`, the MIC in assay [1] (setting [4]) and in assay [3] (setting [5]) was 25 µM (≈ 7.89 µg/mL) each time. The same compound returned an IC50 in assay [2] of 20 nM.

Regarding `CCCC[C@H](CN(O)C=O)C(=O)N[C@@H](CC1CCCCC1)C(=O)N(C)C`, the MIC in assay [1] (setting [4]) and in assay [3] (setting [5]) was 100 µM (≈ 37 µg/mL) throughout. In addition, in assay [2], the IC50 was 30 nM.

For `CCCC[C@H](CN(O)C=O)C(=O)N[C@@H](CCCCN)C(=O)N(C)C`, the MIC in assay [1] (setting [4]) and in assay [3] (setting [5]) was greater than 200 µM in each case. For the same compound, inhibition in assay [2] was half-maximal at 200 nM (IC50).

Turning to `CCCC[C@H](CN(O)C=O)C(=O)N1CCC[C@H]1C(=O)N(C)C`, the values for the MIC in assay [1] (setting [4]) and in assay [3] (setting [5]) were greater than 200 µM and 50 µM (≈ 15.7 µg/mL), respectively. In addition, the half-inhibitory concentration (IC50) in assay [2] was 400 nM.

Consider `CCCC[C@H](CN(O)C=O)C(=O)N[C@@H](CSCc1ccccc1)C(=O)N(C)C`, for which the MIC amounted to 200 µM (≈ 81.9 µg/mL) in assay [1] (setting [4]) and 12.5 µM (≈ 5.12 µg/mL) in assay [3] (setting [5]). Also, the IC50 in assay [2] amounted to 70 nM.

`CCCC[C@H](CN(O)C=O)C(=O)NCC(=O)N(C)C`: the MIC in assay [1] (setting [4]) is 50 µM (≈ 13.7 µg/mL); in assay [3] (setting [5]) it was greater than 200 µM.

As for `CCCC[C@H](CN(O)C=O)C(=O)N[C@H](C(=O)N1CCC(Cc2ccccc2)CC1)C(C)(C)C`, the minimal inhibitory concentration (MIC) in assay [1] (setting [4]) was determined as 200 µM (≈ 91.9 µg/mL); in assay [3] (setting [5]), 6.25 µM (≈ 2.87 µg/mL). Also, half-maximal inhibition in assay [2] (IC50) required 20 nM.

On to `CCCC[C@H](CN(O)C=O)C(=O)N1Cc2ccccc2C[C@H]1C(=O)N(C)C`, for which the MIC in assay [1] (setting [4]) and in assay [3] (setting [5]) was greater than 200 µM throughout.

Consider `CCCC[C@H](CN(O)C=O)C(=O)N[C@H](C(=O)N(C)C)C(C)(C)C` (stereo in doubt; form 2), for which the MIC in assay [1] was 100 µM (≈ 32.9 µg/mL); in assay [3], greater than 200 µM. The concentration for half-maximal inhibition (IC50) in assay [2] came to 40 nM.

Regarding `CCCC[C@H](CN(O)C=O)C(=O)N[C@@H](Cc1ccccc1)C(=O)N(C)C`, the MIC in assay [1] (setting [4]) turned out to be 100 µM (≈ 36.3 µg/mL); in assay [3] (setting [5]), 50 µM (≈ 18.2 µg/mL).

Take `CCCC[C@H](CN(O)C=O)C(=O)N[C@@H](Cc1ccc(Cl)cc1)C(=O)N(C)C`: the values for the MIC in assay [1] (setting [4]) and in assay [3] (setting [5]) were greater than 200 µM and 100 µM (≈ 39.8 µg/mL), respectively. The same compound displayed an IC50 in assay [2] of 50 nM.

(Values after ChEMBL document CHEMBL1145728, “Structure--activity relationships of the peptide deformylase inhibitor BB-3497: modification of the P2' and P3' side chains” (Bioorg Med Chem Lett, 2003).)
